In patent US6403626B1, “Benzimidazole derivatives” (Synaptic Pharmaceutical Corporation, priority 1994, dated 2002):
Like-named read-outs stand apart in the source and are kept apart here.

Legend:
[1] = target: α2C Human Adrenergic Receptor (Homo sapiens, UniProt P18825); assay: Equilibrium competition binding, [3H] rauwolscine, membranes of transfected LM(tk-) cells
[2] = target: T1, α2B Human Adrenergic Receptor (Homo sapiens, UniProt P18089); assay: Equilibrium competition binding, [3H] rauwolscine, membranes of transfected Y-1 cells
T1 construct: expressed in transfected cells; host or cells: Y-1 cells
T1 sequence (P18089 1-450): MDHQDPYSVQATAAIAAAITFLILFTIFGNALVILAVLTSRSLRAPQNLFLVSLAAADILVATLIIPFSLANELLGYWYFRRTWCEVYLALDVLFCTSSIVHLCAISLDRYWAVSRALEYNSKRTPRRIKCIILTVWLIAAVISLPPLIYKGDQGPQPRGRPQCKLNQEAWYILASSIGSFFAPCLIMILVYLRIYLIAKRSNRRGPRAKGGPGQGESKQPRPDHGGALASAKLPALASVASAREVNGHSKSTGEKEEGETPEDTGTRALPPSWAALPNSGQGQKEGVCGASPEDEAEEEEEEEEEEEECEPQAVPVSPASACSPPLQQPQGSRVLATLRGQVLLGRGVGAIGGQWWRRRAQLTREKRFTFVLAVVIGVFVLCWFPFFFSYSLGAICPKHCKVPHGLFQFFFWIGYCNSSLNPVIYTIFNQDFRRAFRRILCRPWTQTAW
Protocol: (§1) Binding and functional assays were performed using stably transfected human alpha adrenergic receptors. Equilibrium competition binding assays were performed with membrane preparations from cultured LM(tk-) cells stably transfected with the cloned human adrenoceptor subtypes except for α2b, which was expressed in Y-1 cells, using [^3H] prazosin for α1 receptors and [^3H] rauwolscine for α2 receptors.
(§2) Stable cell lines were selected as described above.
(§3) Transfected cells from culture flasks were scraped into 5 ml of 5 mM Tris-HCl, 5 mM EDTA, pH 7.5, and lysed by sonication. The cell lysates were centrifuged at 1000 rpm for 5 min at 4° C., and the supernatant was centrifuged at 30,000×g for 20 min at 4° C. The pellet was suspended in 50 mM Tris-HCl, 1 mM MgCl2, and 0.1% ascorbic acid at pH 7.5. Binding of α2 antagonist [^3H] rauwolscine ([…]) to membrane preparations of LM(tk-) cells was done in a final volume of 0.25 ml and incubated at 37° C. for 20 min. Nonspecific binding was determined in the presence of 10 μM phentolamine. The reaction was stopped by filtration through GF/B filters using a cell harvester.

[3] = target: T2, α1A Human Adrenergic Receptor (Homo sapiens, UniProt P25100); assay: Equilibrium competition binding, [3H] prazosin, membranes of transfected LM(tk-) cells
T2 construct: expressed in transfected cells; host or cells: LM(tk-) cells
T2 sequence (P25100 1-572): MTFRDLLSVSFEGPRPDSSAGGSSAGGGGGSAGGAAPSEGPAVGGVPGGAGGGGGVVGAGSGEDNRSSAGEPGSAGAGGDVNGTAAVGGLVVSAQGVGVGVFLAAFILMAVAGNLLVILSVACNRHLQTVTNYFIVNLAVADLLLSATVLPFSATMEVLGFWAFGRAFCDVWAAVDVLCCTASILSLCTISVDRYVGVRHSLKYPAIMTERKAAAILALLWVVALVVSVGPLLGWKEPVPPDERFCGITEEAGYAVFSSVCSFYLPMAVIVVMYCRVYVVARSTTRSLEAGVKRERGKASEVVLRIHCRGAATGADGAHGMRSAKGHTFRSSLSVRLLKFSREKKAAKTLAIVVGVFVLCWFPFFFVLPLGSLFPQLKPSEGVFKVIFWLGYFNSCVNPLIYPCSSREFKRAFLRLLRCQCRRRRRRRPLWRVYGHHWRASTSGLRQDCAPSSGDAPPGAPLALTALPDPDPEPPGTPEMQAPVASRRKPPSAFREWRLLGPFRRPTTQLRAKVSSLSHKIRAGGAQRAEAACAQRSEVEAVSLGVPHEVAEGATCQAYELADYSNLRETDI
Protocol: as §1, §3, §2

[4] = target: T3, α1B Human Adrenergic Receptor (Homo sapiens, UniProt P35368); assay: as above
T3 construct: The entire coding region of α1B(1563 bp); expressed in transfected cells; host or cells: LM(tk-) cells
T3 sequence (P35368 1-520): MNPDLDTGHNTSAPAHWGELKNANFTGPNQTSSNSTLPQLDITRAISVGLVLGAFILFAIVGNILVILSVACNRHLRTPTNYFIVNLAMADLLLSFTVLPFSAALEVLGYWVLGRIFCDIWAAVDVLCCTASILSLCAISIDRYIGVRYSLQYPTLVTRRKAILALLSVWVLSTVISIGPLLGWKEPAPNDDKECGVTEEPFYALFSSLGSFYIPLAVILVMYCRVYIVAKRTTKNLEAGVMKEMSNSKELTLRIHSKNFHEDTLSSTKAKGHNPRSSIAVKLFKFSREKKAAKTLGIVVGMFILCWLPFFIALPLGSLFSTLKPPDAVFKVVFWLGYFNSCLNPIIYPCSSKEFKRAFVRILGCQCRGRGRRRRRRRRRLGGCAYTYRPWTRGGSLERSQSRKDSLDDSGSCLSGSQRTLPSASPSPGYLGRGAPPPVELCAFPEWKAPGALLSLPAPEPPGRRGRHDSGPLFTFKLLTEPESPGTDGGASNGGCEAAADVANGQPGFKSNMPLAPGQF
Protocol: as §1, §3
The construct involved ligating the full-length containing EcoRI brainstem cDNA fragment from ZapII into the expression vector. The stable cell lines were selected as described above.

[5] = target: T4, α1C Human Adrenergic Receptor (Homo sapiens, UniProt P35348); assay: as above
T4 construct: expressed in transfected cells; host or cells: LM(tk-) cells
T4 sequence (P35348 1-466): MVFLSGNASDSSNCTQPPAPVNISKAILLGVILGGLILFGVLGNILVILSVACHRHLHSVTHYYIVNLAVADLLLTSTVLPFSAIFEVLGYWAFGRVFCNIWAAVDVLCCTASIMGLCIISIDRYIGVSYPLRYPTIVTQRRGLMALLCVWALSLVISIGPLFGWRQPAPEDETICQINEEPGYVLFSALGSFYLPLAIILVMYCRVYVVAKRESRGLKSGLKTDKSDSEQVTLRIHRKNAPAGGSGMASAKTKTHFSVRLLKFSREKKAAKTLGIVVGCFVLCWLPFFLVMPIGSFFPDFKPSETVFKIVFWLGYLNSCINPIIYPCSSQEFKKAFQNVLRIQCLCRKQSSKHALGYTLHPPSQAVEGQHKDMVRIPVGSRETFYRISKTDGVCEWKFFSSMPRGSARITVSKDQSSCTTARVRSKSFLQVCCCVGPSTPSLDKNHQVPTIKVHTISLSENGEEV
Protocol: as §1, §3
The construct involved ligation three partial overlapping fragments: a 5′ 0.6 kb HincII genomic clone, a central 1.8 EcoRI hippocampal cDNA clone, and a 3′ 0.6 Kb PstI genomic clone. The hippocampal cDNA fragment overlaps with the 5′ and 3′ genomic clones so that the HincII and PstI sites at the 5 and 3′ ends of the cDNA clone, respectively, were utilized for ligation. This full-length clone was cloned into the KpnI site of the expression vector, using the 5′ and 3′ KpnI sites of the fragment, derived from vector (i.e., pBluescript) and 3′-untranslated sequences, respectively. Stable cell lines were selected as described above.

[6] = target: T5, α2C Human Adrenergic Receptor (Homo sapiens, UniProt P18825); assay: Equilibrium competition binding, [3H] rauwolscine, membranes of transfected LM(tk-) cells; remark: listed apart in the source
T5 sequence (P18825 1-462): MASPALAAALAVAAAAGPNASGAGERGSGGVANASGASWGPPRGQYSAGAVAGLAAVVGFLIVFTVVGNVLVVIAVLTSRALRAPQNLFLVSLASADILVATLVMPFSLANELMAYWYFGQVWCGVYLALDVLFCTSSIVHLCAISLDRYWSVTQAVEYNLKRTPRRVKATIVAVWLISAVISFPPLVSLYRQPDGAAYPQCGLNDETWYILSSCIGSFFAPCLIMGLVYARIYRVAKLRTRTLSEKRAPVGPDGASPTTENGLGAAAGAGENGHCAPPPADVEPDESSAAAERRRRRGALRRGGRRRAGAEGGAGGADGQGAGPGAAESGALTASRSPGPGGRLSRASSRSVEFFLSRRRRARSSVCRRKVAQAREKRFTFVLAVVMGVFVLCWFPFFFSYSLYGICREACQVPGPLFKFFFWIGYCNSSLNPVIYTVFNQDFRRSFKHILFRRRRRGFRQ

[7] = cloned human receptor, [3H] prazosin, read-out: pKi Alpha-1 B (converted)
[8] = cloned human receptor, [3H] prazosin, read-out: pKi Alpha-1 C (converted)
[9] = cloned human receptor, [3H] rauwolscine, read-out: pKi Alpha-2 B (converted)
[10] = cloned human receptor, [3H] prazosin, read-out: pKi Alpha-1 A (converted)

CC(C)(C)c1nc2ccc(NC3=NCCN3)c(Br)c2[nH]1
Ki [1]: 295 nM

CCCCc1c(NC2=NCCN2)ccc2nc[nH]c12
Ki [1]: 120 nM

CCCCc1cc(NC2=NCCN2)cc2[nH]cnc12
Ki [1]: 204 nM

CCc1nc2ccc(NC3=NCCN3)c(Br)c2[nH]1
Ki [1]: 182 nM

Cc1cc(NC2=NCCN2)cc2[nH]cnc12
Ki [1]: 126 nM

Cc1cc2nc[nH]c2cc1NC1=NCCN1
Ki [1]: 214 nM

Cn1cnc2cc(NC3=NCCN3)ccc21
Ki [1]: 155 nM

CC(C)Cn1cnc2cc(NC3=NCCN3)ccc21 [Example 22, 1-Isobutyl-5-(2-imidazolin-2-ylamino)Benzimidazole]
Ki [2]: 427 nM
Ki [3]: 10500 nM
Ki [4, 7]: 105000 nM
Ki [5, 8]: 1860 nM
Ki [6]: 182 nM

CC(C)Cn1cnc2c(Br)c(NC3=NCCN3)ccc21 [Example 23, 1-Isobutyl-4-bromo-5-(2-imidazolin-2-ylamino)Benzimidazole]
Ki [2, 9]: 309 nM
Ki [3]: 5010 nM
Ki [4, 7]: 38000 nM
Ki [5, 8]: 380 nM
Ki [6]: 229 nM

c1cc2c(cc1NC1=NCCN1)ncn2C1CCCC1 [Example 25, 1-Cyclopentyl-5-(2-imidazolin-2-ylamino)Benzimidazole]
Ki [2]: 646 nM
Ki [3]: 6170 nM
Ki [4, 7]: 44700 nM
Ki [5, 8]: 9770 nM
Ki [6]: 437 nM

Brc1c(NC2=NCCN2)ccc2c1ncn2C1CCCC1 [Example 26, 1-Cyclopentyl-4-bromo-5-(2-imidazolin-2-ylamino)Benzimidazole]
Ki [2, 9]: 562 nM
Ki [3, 10]: 8910 nM
Ki [4, 7]: 57500 nM
Ki [5, 8]: 9550 nM
Ki [6]: 257 nM

c1cc2ncn(C3CCCC3)c2cc1NC1=NCCN1 [Example 27, 3-Cyclopentyl-5-(2-imidazolin-2-ylamino)Benzimidazole]
Ki [2]: 1020 nM
Ki [3]: 8320 nM
Ki [4, 7]: 33900 nM
Ki [5, 8]: 6920 nM
Ki [6]: 724 nM

Brc1c(NC2=NCCN2)ccc2ncn(C3CCCC3)c12 [Example 28, 3-Cyclopentyl-4-bromo-5-(2-imidazolin-2-ylamino)Benzimidazole]
Ki [2, 9]: 41.7 nM
Ki [3]: 661 nM
Ki [4]: 10500 nM
Ki [5]: 3800 nM
Ki [6]: 95.5 nM

c1cc2c(cc1NC1=NCCN1)ncn2CC1CCCCC1 [Example 29, 1-Cyclohexylmethyl-5-(2-imidazolin-2-ylamino)Benzimidazole]
Ki [2, 9]: 363 nM
Ki [3, 10]: 912 nM
Ki [4, 7]: 20900 nM
Ki [5, 8]: 1410 nM
Ki [6]: 490 nM

Brc1c(NC2=NCCN2)ccc2ncn(CC3CCCCC3)c12 [Example 31, 3-Cyclohexylmethyl-4-bromo-5-(2-imidazolin-2-ylamino)Benzimidazole]
Ki [2, 9]: 37.2 nM
Ki [3]: 257 nM
Ki [4]: 2140 nM
Ki [5]: 372 nM
Ki [6]: 38.9 nM

c1ccc(Cn2cnc3cc(NC4=NCCN4)ccc32)cc1 [Example 32, 1-Benzyl-5-(2-imidazolin-2-ylamino)Benzimidazole]
Ki [2, 9]: 50.1 nM
Ki [3]: 3720 nM
Ki [4]: 33100 nM
Ki [5]: 3890 nM
Ki [6]: 162 nM

Brc1c(NC2=NCCN2)ccc2c1ncn2Cc1ccccc1 [Example 33, 1-Benzyl-4-bromo-5-(2-imidazolin-2-ylamino)Benzimidazole]
Ki [2, 9]: 13.8 nM
Ki [3, 10]: 1820 nM
Ki [4, 7]: 33100 nM
Ki [5, 8]: 1450 nM
Ki [6]: 162 nM

c1ccc(Cn2cnc3ccc(NC4=NCCN4)cc32)cc1 [Example 34, 3-Benzyl-5-(2-imidazolin-2-ylamino)Benzimidazole]
Ki [2, 9]: 89.1 nM
Ki [3]: 2570 nM
Ki [4]: 12000 nM
Ki [5]: 1350 nM
Ki [6]: 186 nM

Brc1c(NC2=NCCN2)ccc2ncn(Cc3ccccc3)c12 [Example 35, 3-Benzyl-4-bromo-5-(2-imidazolin-2-ylamino)Benzimidazole]
Ki [2, 9]: 15.8 nM
Ki [3]: 309 nM
Ki [4]: 1950 nM
Ki [5]: 794 nM
Ki [6]: 17 nM

OCCn1cnc2ccc(NC3=NCCN3)c(Br)c21 [Example 39, 3-(2-Hydroxyethyl)-4-bromo-5-(2-imidazolin-2-ylamino)Benzimidazole]
Ki [2, 9]: 490 nM
Ki [3]: 1580 nM
Ki [4]: 11000 nM
Ki [5]: 4790 nM
Ki [6]: 617 nM

NCCn1cnc2c(Br)c(NC3=NCCN3)ccc21 [Example 40, 1-(2-Aminoethyl)-4-bromo-5-(2-imidazolin-2-ylamino)Benzimidazole]
Ki [2, 9]: 955 nM
Ki [3, 10]: 9330 nM
Ki [4, 7]: 26900 nM
Ki [5, 8]: 9120 nM
Ki [6]: 2820 nM
